# Results reported in the supplement of paper PMC11208160.
# Experiment: recombinant barcode read abundance after kanamycin selection (control-corrected) (log10(CPM+1)); higher = more efficient recombination; sequences stand for … in AGTGCAGAGAAAATCGGCCAGTTTTCTCTGCCTGCAGTCCGCATGCCGT…AGATTTATGCAGCGGACTGCCTTTCTCCCAAAGTGATAAACCGGACAGTATCATGGACCGGTTTTCCCGGTAATCCGTATTTGCAAGGTTGGTTTCACT; site = the 11-nt target
# Procedure, shortened: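 Targets were screened in pooled form in E. coli against IS621 bridge RNA target-binding loops. Recombination efficiency is based on barcode counts at recombinant junctions in counts per million, averaged and corrected for the control. Numbers are shown as log10(CPM+1), with duplicate plates on chloramphenicol/ampicillin LB agar (control) or chloramphenicol/ampicillin/kanamycin with 0.1 mM IPTG.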
# 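Also: IS621 recombinase and bridge RNA in Escherichia coli cells.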
row,Sequence,recombinant barcode read abundance (log10)
1,ATGCGAGCTTGGGTTCTAACCTGTTGCAG (site ATGCGAGCTCC),0.0805
2,ATGCGAGCTTGGGTTCTAACCTGTTGCAG (site ATGCGAGCTCG),0.549
3,ATGCGAGCTTGGGTTCTAACCTGTTGCAG (site ATGCGAGCTCT),1.87
4,ATGGACCCTTGGGTTCTAACCTGTTGCTC (site ATGGACCCTGA),1.93
5,ATGGACCCTTGGGTTCTAACCTGTTGCTC (site TATCGGGCTCT),0.0488
6,ATGGATACTTGGGTTCTAACCTGTTGCGT (site AGGGATACTAC),0.219
7,ATGGATACTTGGGTTCTAACCTGTTGCGT (site ATGGATACTAC),2.51
8,ATGGCGGCTTGGGTTCTAACCTGTTGCCT (site ATGGCGGCTAG),1.69
9,ATGGCGGCTTGGGTTCTAACCTGTTGCCT (site GTGGAGGCTAG),0.0374
10,ATGGGCACTTGGGTTCTAACCTGTTGCCT (site ATAGGAACTAG),0.198
11,ATGGGCACTTGGGTTCTAACCTGTTGCCT (site ATGGGCACTAG),0.639
12,ATGGGCCCTTGGGTTCTAACCTGTTGCTC (site ATGGGCCCTAA),1.36
13,ATGGGCCCTTGGGTTCTAACCTGTTGCTC (site ATGGGCCCTCA),1.04
14,ATGGGCCCTTGGGTTCTAACCTGTTGCTC (site ATGGGCCCTGA),2.09
15,ATGGGCCCTTGGGTTCTAACCTGTTGCTC (site ATGGGCCCTTA),0.0312
16,ATGGGTCCTTGGGTTCTAACCTGTTGCCT (site ATAGGTCCTAG),2.07
17,ATGGGTCCTTGGGTTCTAACCTGTTGCCT (site ATCGGTCCTAG),0.0834
18,ATGGGTCCTTGGGTTCTAACCTGTTGCCT (site ATGGGTCCTAG),2.55
19,ATGGGTCCTTGGGTTCTAACCTGTTGCCT (site ATTGGTCCTAG),0.356
20,ATGGTCCCTTGGGTTCTAACCTGTTGCCT (site ATAGTCCCTAG),3.2
21,ATGGTCCCTTGGGTTCTAACCTGTTGCCT (site ATGGTCCCTAG),3.16
22,ATGGTGGCTTGGGTTCTAACCTGTTGCCT (site ATGGTGACTAG),1.17

row,Sequence,recombinant barcode read abundance (log10)
1,ATGGTGGCTTGGGTTCTAACCTGTTGCCT (site ATGGTGCCTAG),0.288
2,ATGGTGGCTTGGGTTCTAACCTGTTGCCT (site ATGGTGGCTAG),1.81
3,ATGGTGGCTTGGGTTCTAACCTGTTGCCT (site ATGGTGTCTAG),0.241
4,ATGTCTACTTGGGTTCTAACCTGTTGCCA (site ATAACTACTTG),0.0597
5,ATGTCTACTTGGGTTCTAACCTGTTGCCA (site ATGTCTACTTG),0.0628
6,ATTACCTCTTGGGTTCTAACCTGTTGCCT (site AATACCTCTAG),0.0245
7,ATTACCTCTTGGGTTCTAACCTGTTGCCT (site ACTACCTCTAG),0.0829
8,ATTACCTCTTGGGTTCTAACCTGTTGCCT (site AGTACCTCTAG),0.0695
9,ATTACCTCTTGGGTTCTAACCTGTTGCCT (site ATTACCTCTAG),1.1
10,ATTACTTCTTGGGTTCTAACCTGTTGCTT (site ATTACTTCTAA),0.282
11,ATTACTTCTTGGGTTCTAACCTGTTGCTT (site GAGTTCCCTGG),0.406
12,ATTAGGACTTGGGTTCTAACCTGTTGCAG (site ATTAGGACTCA),0.579
13,ATTAGGACTTGGGTTCTAACCTGTTGCAG (site ATTAGGACTCT),2.1
14,ATTAGGACTTGGGTTCTAACCTGTTGCGA (site AATAGGACTGC),0.03
15,ATTAGGACTTGGGTTCTAACCTGTTGCGA (site ATTAGGACTTC),2.3
16,ATTAGTGCTTGGGTTCTAACCTGTTGCCT (site AATAGTGCTAG),0.605
17,ATTAGTGCTTGGGTTCTAACCTGTTGCCT (site ACTAGTGCTAG),0
18,ATTAGTGCTTGGGTTCTAACCTGTTGCCT (site AGTAGTGCTAG),0.118
19,ATTAGTGCTTGGGTTCTAACCTGTTGCCT (site ATTAGTGCTAG),0.0389
20,ATTCACACTTGGGTTCTAACCTGTTGCGT (site ATTCACACTAC),2.16
21,ATTCACACTTGGGTTCTAACCTGTTGCGT (site CGATTAGCTCG),0.0576
22,ATTGGATCTTGGGTTCTAACCTGTTGCCT (site ATTGGATCTAG),0.391

row,Sequence,recombinant barcode read abundance (log10)
1,ATTGGATCTTGGGTTCTAACCTGTTGCCT (site ATTGGCTCTAG),0.0247
2,ATTGGATCTTGGGTTCTAACCTGTTGCCT (site ATTGGGTCTAG),0.0971
3,ATTGGATCTTGGGTTCTAACCTGTTGCCT (site ATTGGTTCTAG),0.205
4,ATTTCCACTTGGGTTCTAACCTGTTGCCT (site AAGTCCACTAG),0.176
5,ATTTCCACTTGGGTTCTAACCTGTTGCCT (site ATTTCCACTAG),0.433
6,ATTTGCCCTTGGGTTCTAACCTGTTGCCT (site AATTGCCCTAG),0.222
7,ATTTGCCCTTGGGTTCTAACCTGTTGCCT (site ACTTGCCCTAG),0.0987
8,ATTTGCCCTTGGGTTCTAACCTGTTGCCT (site AGTTGCCCTAG),0.0335
9,ATTTGCCCTTGGGTTCTAACCTGTTGCCT (site ATTTGCCCTAG),0.122
10,CAAAACTCTTGGGTTCTAACCTGTTGCTT (site CAAAACTCTAA),0.554
11,CAAAACTCTTGGGTTCTAACCTGTTGCTT (site TCCCCGGCTCC),0.0614
12,CAAAAGGCTTGGGTTCTAACCTGTTGCAG (site CAAAAGGCTCT),1.7
13,CAAAAGGCTTGGGTTCTAACCTGTTGCAG (site CAAAGGGCTCT),0.386
14,CAAAATTCTTGGGTTCTAACCTGTTGCGT (site CAAAATTCTAC),0.703
15,CAAAATTCTTGGGTTCTAACCTGTTGCGT (site CAGAATACTAC),0.0891
16,CAAACAGCTTGGGTTCTAACCTGTTGCCT (site CAAACAACTAG),0.0742
17,CAAACAGCTTGGGTTCTAACCTGTTGCCT (site CAAACACCTAG),0.634
18,CAAACAGCTTGGGTTCTAACCTGTTGCCT (site CAAACAGCTAG),0.824
19,CAAACAGCTTGGGTTCTAACCTGTTGCCT (site CAAACATCTAG),0.113
20,CAAACCGCTTGGGTTCTAACCTGTTGCCT (site CAAACCGCTAG),1.14
21,CAAACCGCTTGGGTTCTAACCTGTTGCCT (site CCAACCGCTAG),0.0884
22,CAAACCGCTTGGGTTCTAACCTGTTGCCT (site CGAACCGCTAG),0.356
